Literature values as cited in patent US10875836B2, “Callyspongiolide, analogs thereof and uses thereof” (Purdue Research Foundation, priority 2016, dated 2020).

Assays:
[1] = system: human Jurkat J16 T lymphocytes
[2] = system: human Ramos B lymphocytes

| Compound | IC50 [1] [nM] | IC50 [2] [nM] | cytotoxicity (A549 cell line) | cytotoxicity (K562 cell line) |
| --- | --- | --- | --- | --- |
| C[C@@H]1C/C=C\C(=O)O[C@H](/C=C/C#C/C=C/C(C)(C)[C@@H](O)c2cccc(O)c2Br)[C@@H](C)/C=C/[C@H](C)C[C@H](OC(N)=O)C1 [callyspongiolide] | 70 | 60 | – | – |
| callyazepin | – | – | moderate cytotoxicity | moderate cytotoxicity |
